Read-outs that look alike come from different tables or passages of the source.
Assays:
BT1017-CM = molecular target: T1, BT1017-CM (Bacteroides thetaiotaomicron, UniProt Q8A900); assay: coupled spectrophotometric methanol release assay; type: biochemical; conditions: 1.7 μM enzyme, pH and temperature not given (optimum pH 8.5, 37 °C), read-out: BT1017 constructs / BT1017-CM
T1 construct: gene BT_1017; crystal model residues 20-462 (text also gives module as 20-400); C-terminal His6; E. coli Tuner(DE3)
T1 sequence (Q8A900 20-462): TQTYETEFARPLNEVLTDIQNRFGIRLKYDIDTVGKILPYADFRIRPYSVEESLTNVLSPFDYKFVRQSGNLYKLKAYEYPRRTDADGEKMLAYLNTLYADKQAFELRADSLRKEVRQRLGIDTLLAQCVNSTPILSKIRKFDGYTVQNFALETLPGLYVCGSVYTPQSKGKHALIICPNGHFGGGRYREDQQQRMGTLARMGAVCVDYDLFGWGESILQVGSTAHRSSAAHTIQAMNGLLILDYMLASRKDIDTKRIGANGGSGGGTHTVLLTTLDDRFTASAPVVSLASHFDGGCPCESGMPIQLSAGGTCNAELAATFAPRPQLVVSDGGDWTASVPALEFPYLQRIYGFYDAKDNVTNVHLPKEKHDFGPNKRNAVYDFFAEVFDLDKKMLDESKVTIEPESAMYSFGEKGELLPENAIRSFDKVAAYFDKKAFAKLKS
Excerpt: coupled spectrophotometric methanol release assay on BT1017-CM

BT1017-SP = molecular target: T2, BT1017-SP (Bacteroides thetaiotaomicron, UniProt Q8A900); assay: coupled spectrophotometric methanol release assay; type: biochemical; conditions: 1.7 μM enzyme, read-out: BT1017 constructs / BT1017-SP
T2 construct: gene BT_1017
T2 sequence (Q8A900 21-653): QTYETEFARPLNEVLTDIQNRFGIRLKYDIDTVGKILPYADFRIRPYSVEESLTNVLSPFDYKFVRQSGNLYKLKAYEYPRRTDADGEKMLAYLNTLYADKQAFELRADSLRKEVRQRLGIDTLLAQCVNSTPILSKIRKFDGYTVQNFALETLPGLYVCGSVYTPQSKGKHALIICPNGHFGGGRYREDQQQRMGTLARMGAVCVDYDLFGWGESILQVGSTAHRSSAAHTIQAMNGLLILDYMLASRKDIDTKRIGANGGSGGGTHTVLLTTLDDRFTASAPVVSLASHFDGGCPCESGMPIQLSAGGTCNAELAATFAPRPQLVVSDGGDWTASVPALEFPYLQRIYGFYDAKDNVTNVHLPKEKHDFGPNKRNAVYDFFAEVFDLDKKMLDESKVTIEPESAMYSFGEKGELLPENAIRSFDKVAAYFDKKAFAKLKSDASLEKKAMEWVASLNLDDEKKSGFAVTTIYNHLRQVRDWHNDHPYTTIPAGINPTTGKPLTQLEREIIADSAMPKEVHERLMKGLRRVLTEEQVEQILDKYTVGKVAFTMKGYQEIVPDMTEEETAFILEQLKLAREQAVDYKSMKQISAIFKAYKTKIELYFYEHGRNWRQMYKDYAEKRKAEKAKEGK
Excerpt: coupled spectrophotometric methanol release assay on BT1017-SP

Substance	Km (BT1017-CM; 0.046–1.38 mM substrate) [µM]	Km (BT1017-SP; 0.046–1.38 mM substrate, pH and temperature of the kinetics not stated (optimum pH 8.5, 37 °C)) [mM]	Km (BT1017-CM; 0.09–3.47 mM substrate) [µM]	Km (BT1017-SP; 0.09–3.47 mM substrate, pH and temperature not given (optimum pH 8.5, 37 °C)) [mM]
GlcA-β1,4-(2-O-Me-Xyl-α1,3)-Fuc-α1,4-(GalA-β1,3)-Rha-α1,3-Api-β1,2-(Araf-α1,3)-(GalA-α1,4)-GalA [ΔBT1017oligoB]	400 ± 70	0.2 ± 0.03	–	–
Rha-α1,3-Api-β1,2-(Araf-α1,3)-(6-O-Me-GalA-α1,4)-GalA [ΔBT1017oligoA]	–	–	1000 ± 200	3 ± 0.4
